Common to all, as to type: cell-based, human
Assay [1] relates to p-ERK in NCI-H441 cells (KRAS G12V mutation). Description: Cell p-ERK assay (HTRF) in NCI-H441 cells. Particulars: NCI-H441 cells, 3 h compound incubation, HTRF p-ERK T202/Y204, read-out: H441 p-ERK IC50. In outline:
(§1)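 IC50 values derive from four-parameter fitting of p-ERK (T202/Y204) HTRF inhibition, normalized to DMSO and blank controls. The lysates came from cells exposed for 3 h to serial 3.16-fold compound dilutions at 0.1% DMSO, after overnight plating at 10000 AsPC-1 or 20000 NCI-H441 cells per well.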

The subject of assay [2] is p-ERK in AsPC-1 cells (KRAS G12D mutation). Description: Cell p-ERK assay (HTRF) in AsPC-1 cells. Particulars: AsPC-1 cells, 3 h compound incubation, HTRF p-ERK T202/Y204, read-out: AsPC-1 p-ERK IC50. In a few lines: as §1
For orientation: TR-FRET usually uses a lanthanide donor and a delayed reading to cut background.

For assay [3], the system named is AsPC-1 cells (KRAS G12D mutation). Briefly: 3D cell proliferation assay (CellTiter Glo-3D), AsPC-1. Particulars: medium with 2% FBS, read-out: AsPC-1 AP IC50. In outline: (§2)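 Luminescence read-out (CellTiter-Glo 3D) after 5-day compound exposure at 37 °C, 5% CO2. Cells: NCI-H441 and AsPC-1, 800/well, RPMI-1640 + 2% FBS, 0.1% DMSO final. IC50 by four-parameter fit of % inhibition against log concentration.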
(Cellular ATP, detected with luciferase, serves as a proxy for viable cell number.)

For a further assay, the system named is NCI-H441 cells. Briefly: 3D cell proliferation assay (CellTiter Glo-3D), NCI-H441. Particulars: medium with 2% FBS, read-out: H441 AP IC50. In a few lines: as §2
Where [4] appears, read: 3D cell proliferation (CellTiter Glo-3D).
Where [5] appears, read: Homo sapiens, ASPC1, 3D cell proliferation (CellTiter Glo-3D).
Setting [6] is: Homo sapiens, NCI-H441, 3D cell proliferation (CellTiter Glo-3D).

Where a name gives a salt, the structure may show the parent alone. Read-outs that look alike come from different tables or passages of the source.

As a reminder, the IC50 is the point on the concentration scale where inhibition reaches its midpoint. For the compound `CO[C@@H](C)c1ncc(OCCN2CCOC3(CC3)C2)cc1-c1c2c3cc(ccc3n1CC(F)(F)F)-c1csc(n1)C[C@H](NC(=O)[C@H]1[C@H](C)[C@@H]1C)C(=O)N1CCC[C@H](N1)C(=O)OCC1(CC1)C2` [Compound Z350, (1r,2R,3S)—N-((3′S,4′S,Z)-2′-(5-(2-(4-oxa-7-azaspiro[2.5]octan-7-yl)ethoxy)-2-((S)-1-methoxyethyl)pyridin-3-yl)-5′,7′-dioxo-1′-(2,2,2-trifluoroethyl)spiro[cyclopropane-1,10′-8-oxa-2(4,2)-thiazola-1(5,3)-indola-6(1,3)-pyridazinacycloundecaphan]-4-yl)-2,3-dimethylcyclopropane-1-carboxamide], the IC50 in assay [1] was determined as 9.1 nM; in assay [2] (Homo sapiens, ASPC1, 3 h), 16.3 nM; in assay [3] (setting [4]) it was 53.4 nM; in the assay on NCI-H441 cells (setting [4]), 19.7 nM.
For `CCn1c(-c2cc(N3CCC(N4CCS(=O)(=O)CC4)CC3)cnc2[C@H](C)OC)c2c3cc(ccc31)-c1csc(n1)C[C@H](NC(=O)[C@H]1[C@H](C)[C@@H]1C)C(=O)N1CCC[C@H](N1)C(=O)OCC(C)(C)C2` (atropisomer, axis not shown; (Ra)) [Compound Z855, (1r,2R,3S)—N-((6S,4S,Z)—(Ra)-1^2-(5-(4-(1,1-dioxidothiomorpholino)piperidin-1-yl)-2-((S)-1-methoxyethyl)pyridin-3-yl)-1^1-ethyl-10,10-dimethyl-5,7-dioxo-6^1,6^2,6^3,6^4,6^5,6^6-hexahydro-1^1H-8-oxa-2(4,2)-thiazola-1(5,3)-indola-6(1,3)-pyridazinacycloundecaphane-4-yl)-2,3-dimethylcyclopropane-1-carboxamide], the half-inhibitory concentration (IC50) in assay [1] (Homo sapiens, NCI-H441, 3 h) was 0.17 nM; in assay [2] (Homo sapiens, ASPC1, 3 h), 0.29 nM; in assay [3] (setting [5]) it was 0.22 nM; with NCI-H441 cells (setting [6]), 0.16 nM.
The like results for `CCn1c(-c2cc(N3CCN(C)CC3)cnc2[C@H](C)OC)c2c3cc(ccc31)-c1csc(n1)C[C@H](NC1=NCCO1)C(=O)N1CCC[C@H](N1)C(=O)OCC(C)(C)C2` (atropisomer, axis not shown; (Ra)) [Compound Z71, (6^3S,4S,Z)-1^1-ethyl-(Ra)-1^2-(2-((S)-1-methoxyethyl)-5-(4-methylpiperazin-1-yl)pyridin-3-yl)-10,10-dimethyl-4-((4.5-dihydrooxazol-2-yl)amino)-6^1,6^2,6^3,6^4,6^5,6^6-hexahydro-1^1H-8-oxa-2(4,2)-thiazola-1(5,3)-indola-6(1,3)-pyridazinacycloundecaphane-5,7-dione formate] were, in that order, 41.7 nM, 96.4 nM, 302 nM and 149 nM.
Turning to `CCn1c(-c2cc(C#CCN3CCCOCC3)cnc2[C@H](C)OC)c2c3cc(ccc31)-c1csc(n1)C[C@H](NC(=O)C(F)(F)C1CC1)C(=O)N1CCC[C@H](N1)C(=O)OCC(C)(C)C2` (atropisomer, axis not shown; (Ra)) [Compound Z927], the IC50 in assay [1] (Homo sapiens, NCI-H441, 3 h) is 1.77 nM; in assay [2] (Homo sapiens, ASPC1, 3 h) it was 3.89 nM; in assay [3] (setting [5]), 6.34 nM; in the assay on NCI-H441 cells (setting [6]), 3.86 nM.
Take `CCn1c(-c2cc(OCC3(N4CCC4)CC3)cnc2[C@H](C)OC)c2c3cc(ccc31)-c1csc(n1)C[C@H](NC(=O)[C@H]1[C@H](C)[C@@H]1C)C(=O)N1CCC[C@H](N1)C(=O)OCC1(CC1)C2` [Compound Z333]: the IC50 stood at 10.9 nM in assay [1] (Homo sapiens, NCI-H441, 3 h); 18.8 nM in assay [2] (Homo sapiens, ASPC1, 3 h); 29.2 nM in assay [3] (setting [5]); 18.6 nM with NCI-H441 cells (setting [6]).
In the case of `CCn1c(-c2cc(C#CCN3CCCOCC3)cnc2[C@H](C)OC)c2c3cc(ccc31)-c1csc(n1)C[C@H](NC(=O)C1[C@H]3COC[C@@H]13)C(=O)N1CCC[C@H](N1)C(=O)OCC(C)(C)C2` (atropisomer, axis not shown; (Ra)) [Compound Z1030], the IC50 in assay [1] (Homo sapiens, NCI-H441, 3 h) stood at 0.17 nM; in assay [2] (Homo sapiens, ASPC1, 3 h), 0.17 nM; in assay [3] (setting [5]) it was 0.39 nM; with NCI-H441 cells (setting [6]) it was 0.28 nM.
For `CCn1c(-c2cc(C#CCN3CCOC4(CC4)C3)cnc2[C@H](C)OC)c2c3cc(ccc31)-c1csc(n1)C[C@H](NC(=O)[C@H]1[C@H](C)[C@@H]1C)C(=O)N1CCC[C@H](N1)C(=O)OCC(C)(C)C2` [Compound Z369-1, (1r,2R,3S)—N-((6^3S,4S,Z)-1^2-(5-(3-(4-oxa-7-azaspiro[2.5]octan-7-yl)prop-1-yn-1-yl)-2-((S)-1-methoxyethyl)pyridin-3-yl)-1^1-ethyl-10,10-dimethyl-5,7-dioxo-6^1,6^2,6^3,6^4,6^5,6^6-hexahydro-1^1H-8-oxa-2(4,2)-thiazola-1(5,3)-indola-6(1,3)-pyridazinacycloundecaphane-4-yl)-2,3-dimethylcyclopropane-1-carboxamide formate], the IC50 in assay [1] (Homo sapiens, NCI-H441, 3 h) amounted to 0.16 nM; in assay [2] (Homo sapiens, ASPC1, 3 h), 0.12 nM; in assay [3] (setting [5]) it was 0.14 nM; in the assay on NCI-H441 cells (setting [6]), 0.21 nM.
On to `CCn1c(-c2cc(CC3(N4CCS(=O)(=O)CC4)CC3)cnc2[C@H](C)OC)c2c3cc(ccc31)-c1csc(n1)C[C@H](NC(=O)[C@H]1[C@H](C)[C@@H]1C)C(=O)N1CCC[C@H](N1)C(=O)OCC(C)(C)C2` (atropisomer, axis not shown; (Ra)) [Compound Z484, (1r,2R,3S)—N-((6^3S,4S,Z)—(Ra)-1^2-(5-((1-(1,1-dioxidothiomorpholino)cyclopropyl)methyl)-2-((S)-1-methoxyethyl)pyridin-3-yl)-1^1-ethyl-10,10-dimethyl-5,7-dioxo-6^1,6^2,6^3,6^4,6^5,6^6-hexahydro-1^1H-8-oxa-2(4,2)-thiazola-1(5,3)-indola-6(1.3)-pyridazinacycloundecaphane-4-yl)-2,3-dimethylcyclopropane-1-carboxamide], for which the IC50 came to 0.67 nM in assay [1] (Homo sapiens, NCI-H441, 3 h); 1.3 nM in assay [2] (Homo sapiens, ASPC1, 3 h); 3.19 nM in assay [3] (setting [5]); 0.59 nM with NCI-H441 cells (setting [6]).
For the compound `CCn1c(-c2cc(C#C[C@@H]3CCCN3C)cnc2[C@H](C)OC)c2c3cc(ccc31)-c1csc(n1)C[C@H](NC(=O)[C@H]1[C@H](C)[C@@H]1C)C(=O)N1CCC[C@H](N1)C(=O)OCC(C)(C)C2` (single isomer, unassigned) [Compound Z598A], the IC50 in assay [1] is 1.7 nM; in assay [2], 4.13 nM; in assay [3] (setting [4]), 6.52 nM; in the assay on NCI-H441 cells (setting [4]), 4.73 nM.
Take `CCn1c(-c2cc(C#CCN3CC(F)C3)cnc2[C@H](C)OC)c2c3cc(ccc31)-c1csc(n1)C[C@H](NC(=O)[C@H]1[C@H](C)[C@@H]1C)C(=O)N1CCC[C@H](N1)C(=O)OCC(C)(C)C2` (atropisomer, axis not shown; (Ra)) [Compound Z383-1, (1r,2R,3S)—N-((6^3S,4S,Z)—(Ra)-1^2-(5-(3-(3-fluoroazetidin-1-yl)prop-1-yn-1-yl)-2-((S)-1-methoxyethyl)pyridin-3-yl)-1^1-ethyl-10,10-dimethyl-5,7-dioxo-6^1,6^2,6^3,6^4,6^5,6^6-hexahydro-1^1H-8-oxa-2(4,2)-thiazola-1(5,3)-indola-6(1,3)-pyridazinacycloundecaphane-4-yl)-2,3-dimethylcyclopropane-1-carboxamide]: the IC50 in assay [1] came to 2.79 nM; in assay [2], 7.39 nM; in assay [3] (setting [4]) it was 5.52 nM; with NCI-H441 cells (setting [4]), 6.04 nM.
Turning to `CCn1c(-c2cc(OCCN3CCP(C)(=O)CC3)cnc2[C@H](C)OC)c2c3cc(ccc31)-c1csc(n1)C[C@H](NC(=O)[C@H]1[C@H](C)[C@@H]1C)C(=O)N1CCC[C@H](N1)C(=O)OCC(C)(C)C2` (single isomer, unassigned) [Compound Z780], the IC50 in assay [1] (Homo sapiens, NCI-H441, 3 h) was found to be 1.56 nM; in assay [2] (Homo sapiens, ASPC1, 3 h), 3.35 nM; in assay [3] (setting [5]), 4.51 nM; in the assay on NCI-H441 cells (setting [6]) it was 1.58 nM.
In the case of `CCn1c(-c2cc(C#CCN3CCCS(=O)(=O)CC3)cnc2[C@H](C)OC)c2c3cc(ccc31)-c1csc(n1)C[C@H](Nc1nnc3cc(C)ccn13)C(=O)N1CCC[C@H](N1)C(=O)OCC(C)(C)C2` (atropisomer, axis not shown; (Ra)) [Compound Z979], the IC50 in assay [1] (Homo sapiens, NCI-H441, 3 h) was 1.05 nM; in assay [2] (Homo sapiens, ASPC1, 3 h), 2.47 nM; in assay [3] (setting [5]), 5.14 nM; in the assay on NCI-H441 cells (setting [6]), 1.23 nM.
With `CCn1c(-c2cc(C#CCN3CC(N=S(C)(C)=O)C3)cnc2[C@H](C)OC)c2c3cc(ccc31)-c1csc(n1)C[C@H](NC(=O)[C@H]1[C@H](C)[C@@H]1C)C(=O)N1CCC[C@H](N1)C(=O)OCC(C)(C)C2` [Compound Z1046, (2R,3S)—N-((6^3S,4S,Z)-1^2-(5-(3-(3-((dimethyl(oxo)-λ^6-sulfaneylidene)amino)azetidin-1-yl)prop-1-yn-1-yl)-2-((S)-1-methoxyethyl)pyridin-3-yl)-1^1-ethyl-10,10-dimethyl-5,7-dioxo-6^1,6^2,6^3,6^4,6^5,6^6-hexahydro-1^1H-8-oxa-2(4,2)-thiazola-1(5,3)-indola-6(1,3)-pyridazinacycloundecaphane-4-yl)-2,3-dimethylcyclopropane-1-carboxamide], the IC50 in assay [1] (Homo sapiens, NCI-H441, 3 h) was 0.34 nM; in assay [2] (Homo sapiens, ASPC1, 3 h), 0.71 nM; in assay [3] (setting [5]), 0.63 nM; in the assay on NCI-H441 cells (setting [6]), 0.34 nM.

The values are drawn from US20260234165A1, “MACROCYCLIC COMPOUNDS, PREPARATION METHOD THEREFOR, AND USE THEREOF” (GENFLEET THERAPEUTICS (SHANGHAI) INC., priority 2004, published 2026).
